Test results taken from ChEMBL document CHEMBL1201862, “PubChem BioAssay data set” (2004).
Activity calls are given as the source filed them. For most assays here, no stated cut-off is given here; in the data, actives have a measured EC50 and inactives only a lower limit.

What was measured:
[1] = target: T1, Calpain-2 catalytic subunit (Sus scrofa, UniProt P43367); experiment: pig calpain II inhibitor potency, dose response, biochemical, fluorogenic peptide substrate (AID 1420); type: functional
T1 sequence (P43367 whole entry): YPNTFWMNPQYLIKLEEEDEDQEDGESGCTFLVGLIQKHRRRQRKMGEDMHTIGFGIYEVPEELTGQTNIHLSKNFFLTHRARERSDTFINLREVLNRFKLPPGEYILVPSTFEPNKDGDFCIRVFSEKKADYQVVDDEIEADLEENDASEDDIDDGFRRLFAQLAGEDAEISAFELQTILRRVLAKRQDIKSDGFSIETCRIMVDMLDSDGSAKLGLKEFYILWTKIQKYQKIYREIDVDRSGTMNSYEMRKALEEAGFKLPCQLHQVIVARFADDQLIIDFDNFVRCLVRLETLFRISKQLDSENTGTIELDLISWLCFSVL

BJ [2] = experiment: cytotoxicity toward BJ-TERT-LT-ST fibroblasts, dose response, cell-based, RAS-independent, luminescence (AID 1935); type: functional; settings: Homo sapiens;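 further: BJ fibroblasts immortalized with TERT plus LT and ST oncogenes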
[3] = cytotoxicity toward DRD oncogenic fibroblasts, dose response, cell-based, non-viral oncogenic, luminescence (AID 1934); type: functional; settings: Homo sapiens
BJ [4] = experiment: cytotoxicity toward BJ-TERT fibroblasts, dose response, cell-based, RAS-independent, luminescence (AID 1933); type: functional; settings: Homo sapiens
BJ [5] = experiment: cells; type: functional, cell-based; settings: Homo sapiens
[6] = target: FAD-linked sulfhydryl oxidase ALR (Homo sapiens, UniProt P55789); experiment: inhibitors of human ALR sulfhydryl oxidase, dose response, biochemical, H2O2 detection, luminescence, cherry-pick (AID 493248)
Sequence of FAD-linked sulfhydryl oxidase ALR (P55789 whole entry): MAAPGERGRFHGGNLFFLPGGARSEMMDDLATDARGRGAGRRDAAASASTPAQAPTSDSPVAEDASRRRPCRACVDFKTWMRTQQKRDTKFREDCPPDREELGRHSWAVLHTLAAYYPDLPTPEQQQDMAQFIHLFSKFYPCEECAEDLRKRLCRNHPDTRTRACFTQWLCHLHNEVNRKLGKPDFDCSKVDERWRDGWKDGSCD

Genome polyprotein = Genome polyprotein (dengue virus type 2, UniProt P29990); experiment: Dengue-2 NS5 methyltransferase inhibitors, primary screen, biochemical, confirmation dose response (AID 588689); type: functional
Sequence of Genome polyprotein (P29990 2492-3391 limits assumed): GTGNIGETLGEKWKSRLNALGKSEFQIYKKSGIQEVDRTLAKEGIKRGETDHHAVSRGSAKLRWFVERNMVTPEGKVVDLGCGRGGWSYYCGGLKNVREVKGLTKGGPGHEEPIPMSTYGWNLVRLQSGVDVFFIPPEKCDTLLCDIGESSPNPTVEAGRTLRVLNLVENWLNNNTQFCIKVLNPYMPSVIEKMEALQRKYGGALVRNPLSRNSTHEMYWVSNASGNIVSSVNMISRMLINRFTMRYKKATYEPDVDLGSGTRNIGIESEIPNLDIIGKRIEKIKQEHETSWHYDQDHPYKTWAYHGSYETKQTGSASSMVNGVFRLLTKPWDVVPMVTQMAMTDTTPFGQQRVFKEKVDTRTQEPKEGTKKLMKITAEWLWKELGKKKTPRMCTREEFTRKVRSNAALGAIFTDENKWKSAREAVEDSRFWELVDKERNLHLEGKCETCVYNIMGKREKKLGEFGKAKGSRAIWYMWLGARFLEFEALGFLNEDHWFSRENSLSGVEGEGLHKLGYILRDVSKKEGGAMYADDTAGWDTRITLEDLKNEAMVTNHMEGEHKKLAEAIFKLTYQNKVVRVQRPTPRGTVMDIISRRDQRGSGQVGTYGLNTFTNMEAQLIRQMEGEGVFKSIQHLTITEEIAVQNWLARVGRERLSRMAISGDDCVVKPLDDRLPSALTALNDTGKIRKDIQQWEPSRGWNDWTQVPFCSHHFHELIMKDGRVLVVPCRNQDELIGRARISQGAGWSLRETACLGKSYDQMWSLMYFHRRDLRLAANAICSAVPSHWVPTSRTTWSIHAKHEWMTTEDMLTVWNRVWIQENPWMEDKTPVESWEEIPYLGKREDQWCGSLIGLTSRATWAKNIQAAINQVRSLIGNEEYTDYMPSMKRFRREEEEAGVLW

Question: For NC(=O)c1ccc(-n2nnnc2SCC(=O)Nc2ccccc2-c2ccccc2)cc1, which IC50 [1] is on record?
Answer: 5.14 µM (not active)

Question: With COc1ccc(OC)c(C(c2nnnn2C2CCCC2)N2CCN(c3ccccc3F)CC2)c1 (centres undefined) as the compound, how does the IC50 [1] read?
Answer: 1.31 µM (not active)

Question: For N#CC1=C(N)Oc2cc(N)ccc2C1c1cc(Br)cs1 (centres undefined), which EC50 (BJ [2]) is on record?
Answer: 20.6 µM (inconclusive)

Question: And the EC50 [3]?
Answer: 15.5 µM (inconclusive)

Question: What about the EC50 (BJ [4]) of the same compound?
Answer: 11.4 µM (active)

Question: What about the EC50 (BJ [5]) of the same compound?
Answer: 94.1 µM (inconclusive)

Question: Which IC50 [1] does the source give for Cn1c(NCc2ccco2)nc2c1c(=O)n(Cc1ccc(Br)cc1)c(=O)n2C here?
Answer: 2.84 µM (not active)

Question: Which results are given for Cc1ccc(NC(=O)c2cccc(C(=O)Nc3ccc(C)cc3C(=O)O)c2)c(C(=O)O)c1?
Answer: AC50 [6]: 2.11 µM (active); IC50 (Genome polyprotein): 22.3 µM (active)

Question: Which EC50 (BJ [2]) does the source give for CCC(=O)c1ccc(Oc2ccc(C(=O)c3ccc(C)cc3)cc2[N+](=O)[O-])cc1 here?
Answer: > 150 µM (not active)

Question: And the EC50 [3]?
Answer: > 150 µM (not active)

Question: And the EC50 (BJ [4])?
Answer: > 150 µM (not active)

Question: What about the EC50 (BJ [5]) of the same compound?
Answer: > 150 µM (not active)

Question: For Cc1nc(C)n(CC(O)COc2ccc(C(=O)c3ccccc3)cc2)n1 (centres undefined), which IC50 [1] is on record?
Answer: 13.4 µM (not active)
